Reference: patent US12344610B2, “APOL1 inhibitors and methods of use” (Maze Therapeutics, Inc., priority 2022, dated 2025)
pEC50: −log10 of the molar value.

Tests used:
[1] = test system: HEK293 clonal cell line overexpressing APOL1 G1; experiment: APOL1 G1 HEK293 cell rescue assay (Example B3); type: cell-based; settings: geometric mean of at least 2 runs, † = single run, ¥ = concentration at 50% rescue estimated (no sigmoidal curve)
Method: Compounds were also assayed in a HEK293 clonal cell line overexpressing APOL1 G1 by a method similar to that shown in Example B2 above.
Unless otherwise specified, EC50 values are reported as the geometric mean of at least 2 assay runs on separate days. Each run represents the average of a technical replicate, where each compound was assayed twice in the same plate. A superscript † symbol indicates a value from the average of a technical replicate from a single assay run, where each compound was assayed twice in the same plate. A ¥ symbol represents compound concentration at 50% rescue estimated due to lack of sigmoidal curve preventing curve fitting. Compounds in Table 41 are referred to by the corresponding Compound Number in Table 1, which is also referred to in the synthetic examples. When one or more of the numbered compounds are identified by stereochemistry (for example, (R)- or (S)-), the specific stereoisomer for which data is provided in Table 41 may be identified by the elution order of such compound as described in the synthetic examples. Absolute stereochemistry of such compounds may be identified by methods known in the art. For Table 41 below, n/a represents “not available”.
Rescue EC50 values reported in Table 41 below represent the half-maximal effective concentration for reversal of cell death caused by overexpression of APOL1.

[2] = test system: HEK293 cells overexpressing APOL1 G2; experiment: APOL1 G2 HEK293 cell rescue assay (reversal of cell death caused by overexpression of APOL1); type: cell-based; settings: geometric mean of at least 2 assay runs, † = single assay run
Method: Unless otherwise specified, EC50 values are reported as the geometric mean of at least 2 assay runs on separate days. Each run represents the average of a technical replicate, where each compound was assayed twice in the same plate. A superscript t symbol indicates a value from the average of a technical replicate from a single assay run, where each compound was assayed twice in the same plate. Compounds in Table 40 are referred to by the corresponding Compound Number in Table 1, which is also referred to in the synthetic examples. When one or more of the numbered compounds are identified by stereochemistry (for example, (R)- or (S)-), the specific stereoisomer for which data is provided in Table 40 may be identified by the elution order of such compound as described in the synthetic examples. Absolute stereochemistry of such compounds may be identified by methods known in the art. For Table 40 below, n/a represents “not available”.
Rescue EC50 values reported in Table 40 below represent the half-maximal effective concentration for reversal of cell death caused by overexpression of APOL1.

[3] = HEK293 clonal line overexpressing APOL1 G1
[4] = Homo sapiens, HEK293, HEK293 clonal line overexpressing APOL1 G1
[5] = Homo sapiens, HEK293, HEK293 overexpressing APOL1 G2

| SMILES | pEC50 [1, 3] | pEC50 ([2]; HEK293 overexpressing APOL1 G2) | pEC50 [1, 4] | pEC50 [2, 5] |
| --- | --- | --- | --- | --- |
| CC(COc1ccc(S(C)(=O)=O)cc1)N1CCC2(CC1)C(=O)N(C1CC(O)C1)c1ccc(Cl)cc12 (single isomer, unassigned) [Compound 207, 5-chloro-1′-[(2S) or (2R)-1-(4-methanesulfonylphenoxy)propan-2-yl]-1-[(trans) or (cis)-3-hydroxycyclobutyl]-1,2-dihydrospiro[indole-3,4′-piperidin]-2-one] | < 5.00 | < 5.00 |  |  |
| O=C1CCc2cc(OCCN3CCC4(CC3)C(=O)Nc3ccc(Cl)cc34)cnc2N1C1CC(O)(C2CC2)C1 (stereo not drawn) [Compound 299, 5-chloro-1′-(2-{[8-(3-cyclopropyl-3-hydroxycyclobutyl)-7-oxo-5,6,7,8-tetrahydro-1,8-naphthyridin-3-yl]oxy}ethyl)-1,2-dihydrospiro[indole-3,4′-piperidin]-2-one] |  |  | 7.20 | 7.67 |
| [2H]C([2H])([2H])N1C(=O)C2(CCN(CCOc3cnc(C4(S(C)(=O)=O)COC4)nc3)CC2)c2cc(Cl)ccc21 [Compound 422, 5-chloro-1′-(2-{[2-(3-methanesulfonyloxetan-3-yl)pyrimidin-5-yl]oxy}ethyl)-1-(^2H3)methyl-1,2-dihydrospiro[indole-3,4′-piperidin]-2-one] |  |  | 6.78 | 7.20 |
| C[C@]1(O)C[C@@H](N2C(=O)CCc3cc(OCCN4CCC5(CC4)C(=O)Nc4ccc(Cl)cc45)cc(C(F)(F)F)c32)C1 [Compound 353, 5-chloro-1′-[2-({2-oxo-1-[(cis)-3-hydroxy-3-methylcyclobutyl]-8-(trifluoromethyl)-1,2,3,4-tetrahydroquinolin-6-yl}oxy)ethyl]-1,2-dihydrospiro[indole-3,4′-piperidin]-2-one] |  |  | 7.46 | 7.91 |
| C[C@]1(O)C[C@@H](n2c(=O)[nH]c3cc(OCCN4CCC5(CC4)C(=O)Nc4ccc(Cl)cc45)cnc32)C1 [Compound 374, 5-chloro-1′-[2-({2-oxo-3-[(cis)-3-hydroxy-3-methylcyclobutyl]-1H,2H,3H-imidazo[4,5-b]pyridin-6-yl}oxy)ethyl]-1,2-dihydrospiro[indole-3,4′-piperidin]-2-one] |  |  | 6.67 | 7.00 |
| CS(=O)(=O)C1(c2ncc(OCCN3CCC4(CC3)C(=O)Nc3c(Cl)cc(Cl)cc34)cn2)CC1 [Compound 400, 5,7-dichloro-1′-(2-{[2-(1-methanesulfonylcyclopropyl)pyrimidin-5-yl]oxy}ethyl)-1,2-dihydrospiro[indole-3,4′-piperidin]-2-one] |  |  | 6.17 | 6.65 |
| C[C@]1(O)C[C@H](n2ncc3cc(OCCN4CCC5(CC4)C(=O)Nc4ccc(C#N)cc45)cnc32)C1 [Compound 438, 2-oxo-1′-[2-({1-[(trans)-3-hydroxy-3-methylcyclobutyl]-1H-pyrazolo[3,4-b]pyridin-5-yl}oxy)ethyl]-1,2-dihydrospiro[indole-3,4′-piperidine]-5-carbonitrile] |  |  | 6.62 | 6.69 |
| CC(C)(O)CN1C(=O)CCc2cc(OCCN3CCC4(CC3)C(=O)Nc3ccc(Cl)cc34)cnc21 [Compound 452, 5-chloro-1′-(2-{[8-(2-hydroxy-2-methylpropyl)-7-oxo-5,6,7,8-tetrahydro-1,8-naphthyridin-3-yl]oxy}ethyl)-1,2-dihydrospiro[indole-3,4′-piperidin]-2-one] |  |  | 7.07 | 7.55 |
| C[C@]1(O)C[C@@H](n2c(=O)cc(C(F)F)c3cc(OCCN4CCC5(CC4)C(=O)Nc4ccc(C(F)F)cc45)cnc32)C1 [Compound 340, 5-(difluoromethyl)-1′-(2-{[5-(difluoromethyl)-7-oxo-8-[(cis)-3-hydroxy-3-methylcyclobutyl]-7,8-dihydro-1,8-naphthyridin-3-yl]oxy}ethyl)-1,2-dihydrospiro[indole-3,4′-piperidin]-2-one] |  |  |  | 7.52 |
| O=C1CCc2cc(OCCN3CCC4(CC3)C(=O)Nc3ccc(C(F)F)cc34)cnc2N1C1CC(CO)C1 (single isomer, unassigned) [Compound 310, 5-(difluoromethyl)-1′-[2-({7-oxo-8-[(trans) or (cis)-3-(hydroxymethyl)cyclobutyl]-5,6,7,8-tetrahydro-1,8-naphthyridin-3-yl}oxy)ethyl]-1,2-dihydrospiro[indole-3,4′-piperidin]-2-one] | 6.57 | 6.99 |  |  |
| CC1(O)CC(n2ncc3cc(OCCN4CCC5(CC4)C(=O)Nc4ccc(C#N)cc45)cnc32)C1 (stereo not drawn) [Compound 436, 1′-(2-{[1-(3-hydroxy-3-methylcyclobutyl)-1H-pyrazolo[3,4-b]pyridin-5-yl]oxy}ethyl)-2-oxo-1,2-dihydrospiro[indole-3,4′-piperidine]-5-carbonitrile] |  |  | 6.94 | 7.10 |
| CC(O)c1ncc(OCCN2CCC3(CC2)C(=O)Nc2ccc(Cl)cc23)cc1C(F)(F)F (stereo not drawn) [Compound 399, 5-chloro-1′-(2-{[6-(1-hydroxyethyl)-5-(trifluoromethyl)pyridin-3-yl]oxy}ethyl)-1,2-dihydrospiro[indole-3,4′-piperidin]-2-one] |  |  | 6.93 | 7.30 |
| N#Cc1ccc2c(c1)C1(CCN(CCOc3cnc(CCO)nc3)CC1)C(=O)N2 [Compound 332, 1′-(2-{[2-(2-hydroxyethyl)pyrimidin-5-yl]oxy}ethyl)-2-oxo-1,2-dihydrospiro[indole-3,4′-piperidine]-5-carbonitrile] |  |  | ~5.00 |  |
| O=C1Nc2ccc(Cl)cc2C12CCN(CCOc1cnc(C(O)CO)nc1)CC2 (single isomer, unassigned) [Compound 378, 5-chloro-1′-[2-({2-[(1S or 1R)-1,2-dihydroxyethyl]pyrimidin-5-yl}oxy)ethyl]-1,2-dihydrospiro[indole-3,4′-piperidin]-2-one] | ~6.00 | 6.41 |  |  |
| CS(=O)(=O)N1CCC(c2ccc(OCCN3CCC4(CC3)C(=O)Nc3ccc(Cl)cc34)cc2)CC1 [Compound 444, 5-chloro-1′-{2-[4-(1-methanesulfonylpiperidin-4-yl)phenoxy]ethyl}-1,2-dihydrospiro[indole-3,4′-piperidin]-2-one] |  |  | 7.14 | 7.65 |
| CC(COc1ccc(S(C)(=O)=O)cc1)N1CCC2(CC1)C(=O)N(C1CC(O)C1)c1ccc(Cl)cc12 (single isomer, unassigned) [Compound 206, 5-chloro-1′-[(2S) or (2R)-1-(4-methanesulfonylphenoxy)propan-2-yl]-1-[(cis) or (trans)-3-hydroxycyclobutyl]-1,2-dihydrospiro[indole-3,4′-piperidin]-2-one] | 5.37 | < 5.02 |  |  |
| C[C@]1(O)C[C@@H](n2cnc3nc(OCCN4CCC5(CC4)C(=O)Nc4ccc(Cl)cc45)cc(C(F)(F)F)c32)C1 [Compound 471, 5-chloro-1′-[2-({1-[(cis)-3-hydroxy-3-methylcyclobutyl]-7-(trifluoromethyl)-1H-imidazo[4,5-b]pyridin-5-yl}oxy)ethyl]-1,2-dihydrospiro[indole-3,4′-piperidin]-2-one] |  |  | < 5.48 | < 5.48 |
| C[C@]1(O)C[C@@H](n2c(=O)cc(C(F)F)c3cc(OCCN4CCC5(CC4)C(=O)Nc4ccc(Cl)cc45)cnc32)C1 [Compound 339, 5-chloro-1′-(2-{[5-(difluoromethyl)-7-oxo-8-[(cis)-3-hydroxy-3-methylcyclobutyl]-7,8-dihydro-1,8-naphthyridin-3-yl]oxy}ethyl)-1,2-dihydrospiro[indole-3,4′-piperidin]-2-one] |  |  |  | 7.44 |
| CC(O)c1ncc(OCCN2CCC3(CC2)C(=O)Nc2ccc(C#N)cc23)cc1C(F)(F)F (stereo not drawn) [Compound 338, 1′-(2-{[6-(1-hydroxyethyl)-5-(trifluoromethyl)pyridin-3-yl]oxy}ethyl)-2-oxo-1,2-dihydrospiro[indole-3,4′-piperidine]-5-carbonitrile] |  |  | 6.67 | 7.00 |
| C[C@]1(O)C[C@@H](n2cnc3cc(OCCN4CCC5(CC4)C(=O)Nc4ccc(Cl)cc45)ccc32)C1 [Compound 351, 5-chloro-1′-[2-({1-[(cis)-3-hydroxy-3-methylcyclobutyl]-1H-1,3-benzodiazol-5-yl}oxy)ethyl]-1,2-dihydrospiro[indole-3,4′-piperidin]-2-one] |  |  | 6.52 | 6.78 |
| CC(O)c1ncc(OCCN2CCC3(CC2)C(=O)Nc2ccc(C(F)F)cc23)cc1C(F)(F)F (stereo not drawn) [Compound 296, 5-(difluoromethyl)-1′-(2-{[6-(1-hydroxyethyl)-5-(trifluoromethyl)pyridin-3-yl]oxy}ethyl)-1,2-dihydrospiro[indole-3,4′-piperidin]-2-one] |  |  | 6.80 | 7.11 |
